One may read the melting point as the temperature, or range, at which the solid turns liquid. By IC50 is commonly meant the concentration needed to halve the response being measured.

In series [1] the test system is Hela nucleus extract containing a mixture of HDAC isoforms. Briefly: In vitro HDAC inhibitory assay, HeLa cell nuclear extract screening at 2 µM. Format: biochemical. Conditions: 2.0 µM compound, mean of three experiments. How it is done:
The HDAC enzyme inhibitory activities of synthesized compounds were evaluated against Hela nucleus extract containing a mixture of HDAC isoforms. Percentage inhibitory rate (PIR) was calculated to determine the activity of tested compounds (Table 1).
All HDAC enzymes were purchased from BPS Bioscience. […] The reaction was terminated by adding 100 μl of imaging agent containing trypsin and trichostatin A (TSA). After standing for 20 min, the fluorescence intensity was measured at the excitation and emission wavelengths of 360 and 460 nm with a microplate reader. The inhibition rate was calculated from the fluorescence intensity readings of the test wells relative to the control wells, and the IC50 curve and value were determined by GraphPad Prism 6.0 software.

For series [2], the system named is K562 cells. Briefly: CCK-8 antiproliferative assay, K562. Conditions: Homo sapiens; for inhibition at 2 µM: K562, read-out: K562 percentage inhibitory rate; for IC50: K562, 72 h, read-out: Antiproliferative IC50 K562. A general note: Tetrazolium assays rely on reduction of a dye to a coloured formazan, in cell work by metabolically active cells.
Description: (§1) The proliferation of cancer cells was tested by CCK-8 assay. Briefly, cells were seeded in a 96-well plate with about 5 × 10^3 cells in each well. In the K652 cell screening, cells were treated with 2.0 μM of tested compounds. […] The light absorbance at 450 nm was measured by using an Opsys microplate reader (Dynex Technologies, Chantilly, VA, United States).
The subject of series [3] is K562 cells. Briefly: Cell cycle analysis by flow cytometry (PI staining). Format: cell-based. Conditions: 24 h; for G2/M phase ratio of K562 cells: control 3.44%, third value in Figure 3; for phase of induced cell cycle arrest: K562 cells, 1 and 2 µM. As to the method: Deregulation of the cell cycle divided into G0/G1 phase, S phase, and G2/M phase is one of the most frequent alterations during cancer development. Thus, the cell cycle analysis is usually performed in the anticancer evaluation.
After treatment, cells were collected and fixed with 70% pre-cold ethanol in PBS and stored at −20°C overnight. […] Finally, DNA content was measured by flow cytometry (FACSAriaIII, Becton Dickinson, United States). The data was analyzed and fitted by ModFit software.
(A flow cytometer gives signals particle by particle.)

Series [4] relates to U266. The experiment in a line: CCK-8 antiproliferative assay, U266. Conditions: Homo sapiens, U-266, 72 h, read-out: Antiproliferative IC50 U266.
Description: (§2) The proliferation of cancer cells was tested by CCK-8 assay. Briefly, cells were seeded in a 96-well plate with about 5 × 10^3 cells in each well. […] The light absorbance at 450 nm was measured by using an Opsys microplate reader (Dynex Technologies, Chantilly, VA, United States).
Series [5] has as its system U937. Briefly: CCK-8 antiproliferative assay, U937. Conditions: Homo sapiens, U-937, 72 h, read-out: Antiproliferative IC50 U937.
Description: as §1
The test system of series [6] is Fadu. The experiment in a line: CCK-8 antiproliferative assay, Fadu. Conditions: Homo sapiens, 72 h, read-out: Antiproliferative IC50 Fadu.
Description: as §1
Series [7] has as its system A549. Briefly: CCK-8 antiproliferative assay, A549. Conditions: Homo sapiens, A549, 72 h, read-out: Antiproliferative IC50 A549.
Description: as §2
The test system of series [8] is MCF-7. Briefly: CCK-8 antiproliferative assay, MCF-7. Conditions: Homo sapiens, MCF7, 72 h, read-out: Antiproliferative IC50 MCF-7.
Description: as §2
Series [9] has as its system A2780. Briefly: CCK-8 antiproliferative assay, A2780. Conditions: Homo sapiens, A2780, 72 h, read-out: Antiproliferative IC50 A2780.
Description: as §2
Series [10] relates to HepG2. The experiment in a line: CCK-8 antiproliferative assay, HepG2. Conditions: Homo sapiens, HepG2, 72 h, read-out: Antiproliferative IC50 HepG2.
Description: as §1
Series [11] has as its system MDA-MB-231. The experiment in a line: CCK-8 antiproliferative assay, MDA-MB-231. Conditions: Homo sapiens, MDA-MB-231, 72 h, read-out: Antiproliferative IC50 MDA-MB-231.
Description: as §1
Series [12] deals with MDA-MB-468. Briefly: CCK-8 antiproliferative assay, MDA-MB-468. Conditions: Homo sapiens, MDA-MB-468, 72 h, read-out: Antiproliferative IC50 MDA-MB-468.
Description: as §2
Series [13] concerns the target HDAC2 (Homo sapiens, UniProt Q92769). Briefly: In vitro HDAC inhibitory assay, recombinant HDAC2.
The target of series [14] is HDAC3 (Homo sapiens, UniProt O15379). Briefly: In vitro HDAC inhibitory assay, recombinant HDAC3.
Sequence of HDAC3 (O15379 whole entry): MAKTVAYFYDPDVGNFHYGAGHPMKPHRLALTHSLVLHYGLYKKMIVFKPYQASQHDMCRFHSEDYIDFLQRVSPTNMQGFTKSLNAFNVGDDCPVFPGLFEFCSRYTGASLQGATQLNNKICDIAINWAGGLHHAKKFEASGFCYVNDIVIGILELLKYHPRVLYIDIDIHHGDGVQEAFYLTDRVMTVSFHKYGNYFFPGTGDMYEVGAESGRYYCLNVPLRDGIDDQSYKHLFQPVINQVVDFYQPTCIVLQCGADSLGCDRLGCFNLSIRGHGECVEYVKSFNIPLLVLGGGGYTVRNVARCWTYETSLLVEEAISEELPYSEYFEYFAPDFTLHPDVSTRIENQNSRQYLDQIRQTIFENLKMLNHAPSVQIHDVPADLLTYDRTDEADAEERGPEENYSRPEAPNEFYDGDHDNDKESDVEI
Sequence of HDAC3 (Q9Y618 395-489 partner limits assumed): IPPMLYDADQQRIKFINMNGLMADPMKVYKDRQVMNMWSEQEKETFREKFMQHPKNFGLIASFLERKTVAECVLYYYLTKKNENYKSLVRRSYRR
Series [15] has as its target T1, HDAC6 (Homo sapiens, UniProt Q9UBN7).
T1 sequence (Q9UBN7 1-1215): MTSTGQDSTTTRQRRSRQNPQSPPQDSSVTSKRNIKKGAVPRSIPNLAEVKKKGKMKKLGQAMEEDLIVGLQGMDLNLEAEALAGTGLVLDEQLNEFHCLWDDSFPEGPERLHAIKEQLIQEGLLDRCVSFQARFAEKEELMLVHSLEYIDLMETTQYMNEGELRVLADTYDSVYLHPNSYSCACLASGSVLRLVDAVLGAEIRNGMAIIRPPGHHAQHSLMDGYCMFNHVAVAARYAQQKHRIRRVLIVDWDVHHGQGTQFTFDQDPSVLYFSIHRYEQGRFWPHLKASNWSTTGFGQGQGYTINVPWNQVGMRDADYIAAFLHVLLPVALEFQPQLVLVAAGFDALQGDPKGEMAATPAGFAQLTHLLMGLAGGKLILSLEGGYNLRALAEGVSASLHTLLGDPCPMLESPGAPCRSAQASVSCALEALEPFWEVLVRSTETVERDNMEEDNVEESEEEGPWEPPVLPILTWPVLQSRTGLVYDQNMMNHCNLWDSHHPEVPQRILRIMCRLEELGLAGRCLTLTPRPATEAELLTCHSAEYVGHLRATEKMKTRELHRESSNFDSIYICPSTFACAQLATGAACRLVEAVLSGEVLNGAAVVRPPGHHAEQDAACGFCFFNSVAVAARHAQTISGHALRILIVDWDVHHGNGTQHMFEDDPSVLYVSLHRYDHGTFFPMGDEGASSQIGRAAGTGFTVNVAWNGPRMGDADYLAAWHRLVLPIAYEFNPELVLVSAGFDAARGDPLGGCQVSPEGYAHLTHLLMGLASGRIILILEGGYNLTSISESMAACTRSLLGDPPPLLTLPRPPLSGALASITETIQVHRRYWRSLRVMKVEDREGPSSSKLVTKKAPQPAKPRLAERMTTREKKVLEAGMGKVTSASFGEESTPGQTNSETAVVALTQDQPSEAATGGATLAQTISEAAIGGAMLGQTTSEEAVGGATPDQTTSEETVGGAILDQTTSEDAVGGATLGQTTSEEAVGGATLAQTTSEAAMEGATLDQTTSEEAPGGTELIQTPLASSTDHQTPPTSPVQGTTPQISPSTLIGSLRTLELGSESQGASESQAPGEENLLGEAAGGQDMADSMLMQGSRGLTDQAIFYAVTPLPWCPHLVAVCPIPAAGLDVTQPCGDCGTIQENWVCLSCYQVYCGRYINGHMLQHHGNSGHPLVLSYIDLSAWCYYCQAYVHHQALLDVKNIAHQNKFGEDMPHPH
Briefly: In vitro HDAC inhibitory assay, recombinant HDAC6.

Series [16] concerns K562 cells. Briefly: Cell apoptosis analysis by flow cytometry (Annexin V-BV421 / 7-AAD). Conditions: 24 h, control 1.14%.
Description: Cells were incubated with Annexin V-BV421(Becton Dickinson, United States) and 7-AAD (Becton Dickinson, United States) double labeling for 30 min in the dark at room temperature and measured by flow cytometry (FACSAriaIII, Becton Dickinson, United States). The data was analyzed by using Flowjo-V10 software.
For series [17], the target named is HDAC1 (Homo sapiens, UniProt Q13547). The experiment in a line: In vitro HDAC inhibitory assay, recombinant HDAC1.
Sequence of HDAC1 (Q13547 whole entry): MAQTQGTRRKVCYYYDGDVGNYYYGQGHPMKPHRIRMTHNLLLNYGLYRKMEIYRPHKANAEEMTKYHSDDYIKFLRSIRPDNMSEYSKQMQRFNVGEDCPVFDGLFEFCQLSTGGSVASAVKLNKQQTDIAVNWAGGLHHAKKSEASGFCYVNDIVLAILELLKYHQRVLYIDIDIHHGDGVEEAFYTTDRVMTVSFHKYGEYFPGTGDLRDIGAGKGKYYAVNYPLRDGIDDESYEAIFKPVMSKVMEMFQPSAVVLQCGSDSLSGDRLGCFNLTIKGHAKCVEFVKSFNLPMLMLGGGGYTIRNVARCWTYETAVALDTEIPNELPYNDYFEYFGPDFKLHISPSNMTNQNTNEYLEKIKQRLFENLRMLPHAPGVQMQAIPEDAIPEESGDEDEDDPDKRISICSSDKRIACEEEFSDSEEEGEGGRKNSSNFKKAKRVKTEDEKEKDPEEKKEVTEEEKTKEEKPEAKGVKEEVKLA

Sequence of HDAC2 (Q92769 whole entry): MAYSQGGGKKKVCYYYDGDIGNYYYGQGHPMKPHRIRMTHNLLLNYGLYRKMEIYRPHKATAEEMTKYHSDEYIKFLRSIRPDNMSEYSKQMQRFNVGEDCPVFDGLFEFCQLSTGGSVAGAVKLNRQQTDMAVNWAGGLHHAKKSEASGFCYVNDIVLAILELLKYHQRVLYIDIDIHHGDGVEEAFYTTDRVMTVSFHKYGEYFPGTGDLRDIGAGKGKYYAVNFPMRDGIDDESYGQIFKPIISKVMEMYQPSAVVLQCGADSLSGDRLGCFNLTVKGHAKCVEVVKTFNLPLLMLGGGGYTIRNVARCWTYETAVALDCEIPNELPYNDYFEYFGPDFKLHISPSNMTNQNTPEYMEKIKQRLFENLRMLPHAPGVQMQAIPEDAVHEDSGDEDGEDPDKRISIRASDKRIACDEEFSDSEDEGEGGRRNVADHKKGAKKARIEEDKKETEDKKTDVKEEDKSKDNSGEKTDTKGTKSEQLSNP

Take `O=C(NO)c1ccc(N2CCN(C(=O)c3cc(-c4ccc(NC(=O)c5ccc(F)cc5F)cc4)nc4ccccc34)CC2)cc1` [Compound D24, 2,4-Difluoro-N-(4-(4-(4-(4-(Hydroxycarbamoyl)Phenyl)Piperazine-1-Carbonyl)Quinolin-2-yl)Phenyl)Benzamide]: the melting point was in the range of 175.3 to 176.3 °C. In series [1], the “HDACs percentage inhibitory rate (PIR)” value was 66.16 ± 1.57%. Moreover, the inhibition at 2 µM in series [2] was found to be 31.1 ± 0.54%.

The compound `O=C(NO)c1ccc(N2CCN(C(=O)c3cc(-c4ccc(NC(=O)c5cccc(F)c5)cc4)nc4ccccc34)CC2)cc1` [Compound D26, 3-Fluoro-N-(4-(4-(4-(4-(Hydroxycarbamoyl)Phenyl)Piperazine-1-Carbonyl)Quinolin-2-yl)Phenyl)Benzamide] gave a melting point of 232.6 to 232.9 °C. Further, the “HDACs percentage inhibitory rate (PIR)” value in [1] came out at 49.99 ± 0.32%. Further, the inhibition at 2 µM in series [2] was 43.1 ± 0.64%.

On to `O=C(NO)c1ccc(N2CCN(C(=O)c3cc(-c4cc(F)ccc4F)nc4ccccc34)CC2)cc1` [Compound D27, 4-(4-(2-(2,5-Difluorophenyl)Quinoline-4-Carbonyl)Piperazin-1-yl)-N-Hydroxybenzamide], for which the melting point was 196.9 to 198 °C. Also, in series [1], the “HDACs percentage inhibitory rate (PIR)” value is reported as 59.30 ± 0.74%. Moreover, the inhibition at 2 µM in [2] was determined as 63.79 ± 0.13%.

On to `O=C(NO)c1ccc(N2CCN(C(=O)c3cc(-c4ccc(-c5ccccc5)cc4)nc4ccccc34)CC2)cc1` [Compound D28, 4-(4-(2-([1,1′-Biphenyl]-4-yl)Quinoline-4-Carbonyl)Piperazin-1-yl)-N-Hydroxybenzamide], for which the “HDACs percentage inhibitory rate (PIR)” value in [1] stood at 68.00 ± 2.49%. Besides, the “G2/M phase ratio of K562 cells” value in series [3] (1 μM) is 5.95%; in [3] (2 μM), 32.57%. The “phase of induced cell cycle arrest” value in series [3] is given as “G2/M phase”. The IC50 in [2] stood at 1.02 ± 0.01 µM; in [4], 1.08 ± 0.02 µM; in series [5], 1.11 ± 0.03 µM; in series [6] it was 3.22 ± 0.14 µM; in [7], 2.83 ± 0.17 µM; in series [8] it was 5.66 ± 0.26 µM. In addition, the IC50 in series [9] is 3.86 ± 0.29 µM; in series [10] it was 2.16 ± 0.13 µM; in series [11], 4.15 ± 0.22 µM; in series [12], 2.89 ± 0.13 µM; in [13], over 1000 µM; in series [14], 24.5 ± 1.24 µM. Besides, the IC50 in series [15] was over 1000 µM. In series [2], the inhibition at 2 µM is 71.9 ± 2.32%. In addition, the “apoptotic cell proportion (apoptotic rate)” value in [16] (K562, 1 μM) is listed as 10.10%; in [16] (K562, 2 μM) it was 15.53%; in [16] (K562, 4 μM), 27.92%.

As to `CCCNNC(=O)c1ccc(N2CCN(C(=O)c3cc(-c4ccc(-c5ccccc5)cc4)nc4ccccc34)CC2)cc1` [Compound D29, 4-(4-(2-([1,1′-Biphenyl]-4-yl)Quinoline-4-Carbonyl)Piperazin-1-yl)-N′-Propylbenzohydrazide], the melting point is 223.3 to 224.2 °C. Besides, the “HDACs percentage inhibitory rate (PIR)” value in [1] stood at 62.14 ± 2.11%. Further, in series [2], the 50% inhibitory concentration (IC50) is 5.27 ± 0.14 µM and the inhibition at 2 µM stood at 62.4 ± 3.87%. Besides, the IC50 in series [4] came to 2.87 ± 0.11 µM. Moreover, the IC50 in [5] stood at 4.22 ± 0.08 µM. For the same compound, the IC50 in [6] is over 50 µM. For the same compound, the IC50 in [7] was over 50 µM. The half-inhibitory concentration (IC50) in [8] stood at 12.6 ± 0.97 µM. In addition, in series [9], the IC50 is over 50 µM. The IC50 in series [10] was over 50 µM. In addition, the IC50 in [11] is over 50 µM. Moreover, the IC50 in [12] is over 50 µM. Moreover, the IC50 in series [17] was 32.6 ± 1.97 µM. Besides, the IC50 in series [13] was found to be 184 ± 4.32 µM. Also, the IC50 in series [14] was 0.477 ± 0.01 µM. The 50% inhibitory concentration (IC50) in [15] was over 1000 µM.

In the case of `CCCCNNC(=O)c1ccc(N2CCN(C(=O)c3cc(-c4ccc(-c5ccccc5)cc4)nc4ccccc34)CC2)cc1` [Compound D30, 4-(4-(2-([1,1′-Biphenyl]-4-yl)Quinoline-4-Carbonyl)Piperazin-1-yl)-N′-Butylbenzohydrazide], the melting point lay within 225.3 to 227.3 °C. For the same compound, the “HDACs percentage inhibitory rate (PIR)” value in series [1] turned out to be 69.35 ± 3.44%. Besides, in series [2], the IC50 was 7.66 ± 0.25 µM and the inhibition at 2 µM was determined as 65.8 ± 2.95%. For the same compound, the IC50 in [4] was 3.68 ± 0.16 µM. In [5], the IC50 worked out at 5.87 ± 0.24 µM. Moreover, the IC50 in series [6] is over 50 µM. Also, the IC50 in [7] is over 50 µM. Moreover, the IC50 in series [8] was 18.8 ± 1.22 µM. In addition, the IC50 in [9] was over 50 µM. The IC50 in series [10] is over 50 µM. In [11], the IC50 is over 50 µM. The IC50 in series [12] is over 50 µM. Further, in series [17], the IC50 amounted to 1.43 ± 0.02 µM. Further, the IC50 in series [13] turned out to be 8.13 ± 0.26 µM. For the same compound, the IC50 in [14] came out at 0.1 ± 0.003 µM. Moreover, the 50% inhibitory concentration (IC50) in series [15] is over 1000 µM.

Regarding `O=C(CCCCCCC(=O)Nc1ccccc1)NO` [SAHA, Vorinostat, reference compound], the “phase of induced cell cycle arrest” value in series [3] is listed as “G0/G1 phase”. Besides, the IC50 is 1.55 ± 0.02 µM in series [2], 1.68 ± 0.03 µM in [5], 2.17 ± 0.92 µM in [6] and 1.87 ± 0.11 µM in series [10]. The “apoptotic cell proportion (apoptotic rate)” value in series [16] (K562, 1 μM) was 1.39%; in series [16] (K562, 2 μM), 3.36%; in [16] (K562, 4 μM), 19.75%.

For the origin of these results see publication PMC9333195, “Discovery of 2-Phenylquinoline-4-Carboxylic Acid Derivatives as Novel Histone Deacetylase Inhibitors” (Frontiers in Chemistry, 2022).
